# Experimental data taken from US11533912B2, “Use of cinnamate compounds in the control of fungal diseases of crops” (Institute of Plant Protection, Gansu Academy of …, priority 2019, dated 2022).
# Where two headings read alike, the source gives them in different places.
# Legend:
# [1] = system: E. polygoni; experiment: In-vivo control of marrow bean powdery mildew in a greenhouse
# Protocol: (2) In-Vivo Determination Method • Marrow bean (Variety: Thailand Jiadouwang) were cultured in pots in a greenhouse, and inoculated with E. polygoni at the stage of 4 leaves. […] Both sides of the leaves were sprayed evenly with a small hand-held sprayer so that the leaves were wetted by the liquor without loss. Applications were conducted every 7 days consecutively for 4 times. 10 days after the fourth application, the number of disease leaves at each grade of powdery mildew was investigated for the whole plant following the grading standard of 9 grades, to calculate the disease index and the control effect.
# [2] = system: Blumeria graminis f. sp. trilici; experiment: In-vivo control of wheat powdery mildew in a greenhouse; parameters: species or system Blumeria graminis f. sp. trilici on winter wheat
# [3] = system: Mycosphaerlla melonis; experiment: Ex vivo mycelial growth, growth rate method; assay type: cell-based; conditions: 1 mg/mL
# [4] = system: Botryosphaeriana berengeriana; experiment: Ex vivo mycelial growth, growth rate method (line 'Botryosphaeriana berengeriana', r23); assay type: cell-based; conditions: Botryosphaeriana berengeriana (first line), 1 mg/mL; for inhibition at 1000 µg/mL: mycelial growth
# [5] = system: F. oxysporum f. sp. vasinfectum; experiment: Ex vivo mycelial growth, growth rate method; assay type: cell-based; conditions: 1 mg/mL; for inhibition at 1000 µg/mL: Fusarium oxysporum
# [6] = system: Botryosphaeria berengeriana; experiment: Ex vivo mycelial growth, growth rate method (line 'Botryosphaeria berengeriana', r34); assay type: cell-based; conditions: Botryosphaeria berengeriana (second line), 1 mg/mL; for inhibition at 1000 µg/mL: mycelial growth
# [7] = system: plant pathogenic fungi; experiment: organism not typed; assay type: cell-based
# [8] = system: Thanatephorus cucumeris; experiment: Ex vivo mycelial growth, growth rate method; assay type: cell-based; conditions: 1 mg/mL; for inhibition at 1000 µg/mL: mycelial growth
# [9] = system: Phytophthora capsici; experiment: Ex vivo mycelial growth, growth rate method; assay type: cell-based; conditions: for antifungal activity on Phytophthora capsici compared with hymexazol: supplementary determination results
# [10] = system: C. gossypii; experiment: Ex vivo mycelial growth, growth rate method; assay type: cell-based; conditions: 1 mg/mL; for inhibition at 1000 µg/mL: Colletotrichum gossypii
# [11] = system: Gaeumannomyces graminis var. graminis and G. graminis var. tritici; experiment: Ex vivo mycelial growth, growth rate method; assay type: cell-based; conditions: 1 mg/mL; for inhibition at 1000 µg/mL: mycelial growth
# [12] = system: E. cichoracearum; experiment: Field efficiency test on cucumber powdery mildew; conditions: 0.50 mg/mL (active ingredients)
# Protocol: The first application was started on Jun. 15, 2018, and E. cichoracearum was inoculated on June 17th (the diseased leaves were harvested from the solar greenhouse near the military airfield at Xiaguanying town, Yuzhong County, moisturized in the greenhouse for 2 days, then shredded, and filtered over a gauze, the filtrate was sprayed onto both sides of the cucumber leaves with the cone nozzle of an electric sprayer for inoculation). The second, third and fourth applications were conducted on June 23rd, July 2nd, and July 9th respectively, the water consumptions of which were adjusted promptly according to the amount of water desired for spraying evenly onto both sides of the control leaves. 10 days after the fourth application, the number of disease leaves at each grade of powdery mildew was investigated following the grading standard of 9 grades, to calculate the disease index and the control effect.
# [13] = system: F. verticillioide; experiment: Ex vivo mycelial growth, growth rate method; assay type: cell-based; conditions: 1 mg/mL; for inhibition at 1000 µg/mL: mycelial growth
# [14] = system: Phytophthora infestans; assay type: cell-based; conditions: Phytophthora infestans (second line), 1 mg/mL
# [15] = system: zucchini powdery mildew; experiment: Field efficiency test on zucchini powdery mildew; assay type: in vivo; conditions: 0.50 mg/mL
# [16] = system: Rhizoctonia solani; experiment: Ex vivo mycelial growth, growth rate method; assay type: cell-based; conditions: 1 mg/mL; for inhibition at 1000 µg/mL: mycelial growth
# [17] = system: Valsa mali; experiment: Ex vivo mycelial growth, growth rate method; assay type: cell-based; conditions: 1 mg/mL; for inhibition at 1000 µg/mL: Cytospora mali, mycelial growth
# [18] = system: F. oxysporum f. sp. lini; experiment: Ex vivo mycelial growth, growth rate method; assay type: cell-based; conditions: 1 mg/mL; for inhibition at 1000 µg/mL: Fusarium oxysporum
# [19] = system: F. graminearum; experiment: microbe, parasite or virus in culture; assay type: cell-based; conditions: for inhibition at 1000 µg/mL: Fusarium graminearum, read-out: Inhibition Rate
# [20] = system: Botrytis cinerea; experiment: Ex vivo mycelial growth, growth rate method; assay type: cell-based; conditions: 1 mg/mL
# [21] = system: Sclerotinia sclerotiorum; experiment: Ex vivo mycelial growth, growth rate method; assay type: cell-based; conditions: 1 mg/mL
# [22] = system: Pyricularia grisea; experiment: microbe, parasite or virus in culture; assay type: cell-based; conditions: for inhibition at 1000 µg/mL: read-out: Inhibition Rate
# [23] = system: Colletotrichum capsici; experiment: Ex vivo mycelial growth, growth rate method; assay type: cell-based; conditions: 1 mg/mL; for inhibition at 1000 µg/mL: Colletotrichum truncatum, mycelial growth
# [24] = system: Fusarium graminearum; experiment: microbe, parasite or virus in culture; assay type: cell-based; conditions: for Average Diameter of the Colony: Fusarium graminearum (first line), 1 mg/mL; for inhibition at 1000 µg/mL: Fusarium graminearum, read-out: Inhibition Rate
# [25] = system: Exserohilum turcicum; experiment: Ex vivo mycelial growth, growth rate method; assay type: cell-based; conditions: 1 mg/mL
# [26] = system: Pythium aphanidermatum; experiment: Ex vivo mycelial growth, growth rate method; assay type: cell-based; conditions: 1 mg/mL; for inhibition at 1000 µg/mL: mycelial growth
# [27] = system: damping-off (P. aphanidermatum, P capsici); experiment: In-vivo control of eggplant damping-off in a greenhouse (sick soil); conditions: 0.80 mg/mL, 200 mL liquor per pot
# Protocol: (§1) (2) In-Vivo Determination Method • Sick soil of damping-off (P. aphanidermatum, P capsici) was collected from the fields of tomatoes, eggplants and peppers in solar greenhouse, and mixed evenly in equal proportion. Tomatoes (Variety: Song Tian Fen Yang Yang, 100 grains), eggplants (Variety: Lanza No. 2 F1 long eggplant, 100 grains), pepper (Longjiao 2 F1, 100 grains) were seeded quantitatively with the sick soil in pots (diameter: 15 cm) in a greenhouse, additionally with sterile vermiculite as the control (each 100 grains for determining the germination rate). […] The computational formula is as below: Mortality of Seedlings (%)=[number of survival seedlings in the seeded grains−number of seeded grains×(100%−germination rate)]/number of seeded grains×100; Control Effect (%)=(mortality of control seedlings−mortality of treated seedlings)/mortality of control seedlings×100.
# [28] = system: damping-off (P. aphanidermatum, P capsici); experiment: In-vivo control of pepper damping-off in a greenhouse (sick soil); conditions: 0.80 mg/mL, 200 mL liquor per pot
# Protocol: as §1
# [29] = system: Coniella diplodiella; experiment: Ex vivo mycelial growth, growth rate method; assay type: cell-based; conditions: 1 mg/mL; for inhibition at 1000 µg/mL: mycelial growth
# [30] = system: Phytophthora infestans; assay type: cell-based; conditions: Phytophthora infestans (first line); 1 mg/mL
# [31] = system: Erysiphe cucurbitacearum or Sphaerotheca cucurbitae; experiment: In-vivo control of zucchini powdery mildew in a greenhouse
# Protocol: (2) In-Vivo Determination Method • Zucchini (Variety: Wuwei Xianglin extra-early 1st generation) were cultured in pots in a greenhouse, and inoculated with Erysiphe cucurbitacearum or Sphaerotheca cucurbitae at the stage of 3 to 4 leaves. […] Both sides of the leaves were sprayed evenly with a small hand-held sprayer so that the leaves were wetted by the liquor without loss. Applications were conducted every 7 days consecutively for 4 times. 10 days after the fourth application, the number of disease leaves at each grade of powdery mildew was investigated for the whole plant following the grading standard of 9 grades, to calculate the disease index and the control effect. The computational formula is as below: Disease index=[(Number of disease leaves at each grade×Corresponding grade value)/(Total number of investigated leaves×9)]×100; Control effect=(Disease index of the clear water control−Treated disease index)/Disease index of the clear water control×100.
# [32] = system: Pythium ultimum; experiment: Supplementary determination of antifungal activity; conditions: supplementary determination results
# Protocol: (3) Ex Vivo Bioassay Method • The inhibition of samples for testing on the mycelial growth of plant pathogenic fungi for testing is determined with a growth rate method. […] Fungal cakes with a diameter of 4 mm are taken from the edge of the colony, inoculated into the center of a PDA plate containing different agents of different concentrations and the DMSO control, with one piece of fungal cake inoculated in each plate (with a diameter of 9 mm), and incubated in a constant temperature incubator at a temperature of 22±1.5° C. 7 days later (10˜20 days may be needed for some pathogenic fungi), the diameter of the colony is measured with a cross over method according to the mycelial growth profile of the control pathogenic fungi, then the inhibition rate of mycelial growth is calculated. The computational formula is as below: the inhibition rate of mycelial growth (%)=[(the diameter of the control colony−the diameter of the treated colony)/the diameter of the control colony]×100.
# [33] = mycelial growth, Phytophthora capsici, 1 mg/mL
# [34] = F. graminearum (second line), 1 mg/mL
smiles,measurement,setting,value
CCOC(=O)/C=C/c1ccc2c(c1)OCO2,Control Effect,[1]; 0.10 mg/mL,75.92%
same,Control Effect,[1]; 0.143 mg/mL,95.20%
same,Control Effect,[1]; 0.20 mg/mL,95.49%
same,Control Effect,[2]; 0.143 mg/mL,74.28%
same,Control Effect,[2]; 0.20 mg/mL,77.65%
same,Average Diameter of the Colony,[3],0.75 cm
same,inhibition at 1000 µg/mL,[3]; mycelial growth,91.3%
same,Average Diameter of the Colony,[4],4.20 cm
same,inhibition at 1000 µg/mL,[4],26.3%
same,Average Diameter of the Colony,[5],2.58 cm
same,inhibition at 1000 µg/mL,[5]; mycelial growth,64.4%
same,Average Diameter of the Colony,[6],3.45 cm
same,inhibition at 1000 µg/mL,[6],49.3%
same,inhibition at 1000 µg/mL,"[7]; read-out: inhibition rate on mycelial growth, range over 5 fungi",88.8 to 100%
same,Average Diameter of the Colony,[8],3.75 cm
same,inhibition at 1000 µg/mL,[8],56.4%
same,Average Diameter of the Colony,"[9]; Phytophthora capsici, 1 mg/mL",1.42 cm
same,inhibition at 1000 µg/mL,[9]; [33],73.2%
same,antifungal activity on Phytophthora capsici compared with hymexazol,[9],"superior to that of the control agent, hymexazol"
same,Average Diameter of the Colony,[10],1.74 cm
same,inhibition at 1000 µg/mL,[10]; mycelial growth,67.8%
same,Average Diameter of the Colony,[11],2.45 cm
same,inhibition at 1000 µg/mL,[11],65.7%
same,control effect on cucumber powdery mildew,[12],80.95%
same,Average Diameter of the Colony,[13],2.91 cm
same,inhibition at 1000 µg/mL,[13],13.9%
same,Average Diameter of the Colony,[14],0.00 cm
same,Control Effect,[15],85.56%
same,Average Diameter of the Colony,[16],0.80 cm
same,inhibition at 1000 µg/mL,[16],88.8%
same,Average Diameter of the Colony,[17],0.00 cm
same,inhibition at 1000 µg/mL,[17],100%
same,Average Diameter of the Colony,[18],6.97 cm
same,inhibition at 1000 µg/mL,[18]; mycelial growth,22.6%
same,Average Diameter of the Colony,[19]; [34],1.73 cm
same,inhibition at 1000 µg/mL,[19],79.9%
same,Average Diameter of the Colony,[20],2.17 cm
same,inhibition at 1000 µg/mL,[20]; mycelial growth,71%
same,Average Diameter of the Colony,[21],4.71 cm
same,inhibition at 1000 µg/mL,[21]; mycelial growth,45.2%
same,Average Diameter of the Colony,[22]; 1 mg/mL,2.70 cm
same,inhibition at 1000 µg/mL,[22],25.6%
same,Average Diameter of the Colony,[23],1.49 cm
same,inhibition at 1000 µg/mL,[23],78%
same,Average Diameter of the Colony,[24],3.00 cm
same,inhibition at 1000 µg/mL,[24],43.9%
same,Average Diameter of the Colony,[25],1.52 cm
same,inhibition at 1000 µg/mL,[25]; mycelial growth,75.5%
same,Average Diameter of the Colony,[26],2.60 cm
same,inhibition at 1000 µg/mL,[26],61.2%
same,control effect on eggplant damping-off,[27],53.63%
same,control effect on pepper damping-off,[28],52%
same,Average Diameter of the Colony,[29],0.00 cm
same,inhibition at 1000 µg/mL,[29],100%
same,Average Diameter of the Colony,[30],2.01 cm
same,Control Effect,[31]; 0.20 mg/mL,77.06%
same,Control Effect,[31]; 0.333 mg/mL,96.21%
same,Control Effect,[31]; 0.50 mg/mL,97.93%
"CO/C=C(/C(=O)OC)c1ccccc1Oc1cc(Oc2ccccc2C#N)ncn1 [Azoxystrobin, azoxystrobin, reference compound]",Inhibition Rate,[3]; mycelial growth,56.33%
same,Inhibition Rate,[5]; mycelial growth,66.33%
same,Inhibition Rate,[9]; [33],25.55%
same,Inhibition Rate,[10]; mycelial growth,40.33%
same,Inhibition Rate,[14]; mycelial growth,100%
same,Inhibition Rate,[18]; mycelial growth,34.11%
same,Inhibition Rate,"[19]; mycelial growth, F. graminearum (second line), 1 mg/mL",30.78%
same,Inhibition Rate,[20]; mycelial growth,51.89%
same,Inhibition Rate,[21]; mycelial growth,51.11%
same,Inhibition Rate,"[22]; mycelial growth, 1 mg/mL",48.11%
same,Inhibition Rate,[25]; mycelial growth,27.78%
"CCOC(=O)/C=C/c1ccc(OC)c(OC)c1 [ethyl 3-(3′,4′-dimethoxyphenyl) acrylate]",Control Effect,[1]; 0.10 mg/mL,83.69%
same,Control Effect,[1]; 0.143 mg/mL,97.09%
same,Control Effect,[1]; 0.20 mg/mL,100%
same,Control Effect,[2]; 0.143 mg/mL,79.47%
same,Control Effect,[2]; 0.20 mg/mL,91.55%
same,Average Diameter of the Colony,[3],0.05 cm
same,inhibition at 1000 µg/mL,[3]; mycelial growth,99.4%
same,Average Diameter of the Colony,[4],1.58 cm
same,inhibition at 1000 µg/mL,[4],72.3%
same,Average Diameter of the Colony,[5],2.68 cm
same,inhibition at 1000 µg/mL,[5]; mycelial growth,63%
same,Average Diameter of the Colony,[6],2.95 cm
same,inhibition at 1000 µg/mL,[6],56.6%
same,inhibition at 1000 µg/mL,"[7]; read-out: inhibition rate on mycelial growth, range over 12 fungi",84.4 to 100%
same,Average Diameter of the Colony,[8],0.94 cm
same,inhibition at 1000 µg/mL,[8],89.1%
same,Average Diameter of the Colony,"[9]; Phytophthora capsici, 1 mg/mL",0.75 cm
same,inhibition at 1000 µg/mL,[9]; [33],85.8%
same,antifungal activity on Phytophthora capsici compared with hymexazol,[9],"superior to that of the control agent, hymexazol"
same,Average Diameter of the Colony,[10],1.33 cm
same,inhibition at 1000 µg/mL,[10]; mycelial growth,75.4%
same,Average Diameter of the Colony,[11],2.56 cm
same,inhibition at 1000 µg/mL,[11],64.2%
same,control effect on cucumber powdery mildew,[12],85.18%
same,Average Diameter of the Colony,[13],2.28 cm
same,inhibition at 1000 µg/mL,[13],32.5%
same,Average Diameter of the Colony,[14],0.00 cm
same,Control Effect,[15],91.93%
same,Average Diameter of the Colony,[16],0.00 cm
same,inhibition at 1000 µg/mL,[16],100%
same,Average Diameter of the Colony,[17],0.00 cm
same,inhibition at 1000 µg/mL,[17],100%
same,Average Diameter of the Colony,[18],6.17 cm
same,inhibition at 1000 µg/mL,[18]; mycelial growth,31.4%
same,Average Diameter of the Colony,[19]; [34],2.74 cm
same,inhibition at 1000 µg/mL,[19],68.1%
same,Average Diameter of the Colony,[20],0.61 cm
same,inhibition at 1000 µg/mL,[20]; mycelial growth,91.9%
same,Average Diameter of the Colony,[21],1.34 cm
same,inhibition at 1000 µg/mL,[21]; mycelial growth,84.4%
same,Average Diameter of the Colony,[22]; 1 mg/mL,5.47 cm
same,inhibition at 1000 µg/mL,[22],39.2%
same,Average Diameter of the Colony,[23],0.83 cm
same,inhibition at 1000 µg/mL,[23],87.8%
same,Average Diameter of the Colony,[24],1.40 cm
same,inhibition at 1000 µg/mL,[24],73.8%
same,Average Diameter of the Colony,[25],0.56 cm
same,inhibition at 1000 µg/mL,[25]; mycelial growth,91%
same,Average Diameter of the Colony,[26],0.73 cm
same,inhibition at 1000 µg/mL,[26],89.1%
same,control effect on eggplant damping-off,[27],48.71%
same,control effect on pepper damping-off,[28],64.57%
same,Average Diameter of the Colony,[29],0.00 cm
same,inhibition at 1000 µg/mL,[29],100%
same,antifungal activity on Pythium ultimum compared with carbendazim,[32],"superior to that of the control agent, carbendazim"
same,Average Diameter of the Colony,[30],1.33 cm
same,Control Effect,[31]; 0.20 mg/mL,81.83%
same,Control Effect,[31]; 0.333 mg/mL,95.52%
same,Control Effect,[31]; 0.50 mg/mL,98.63%
